The text below walks through data of patent publication US20090069320A1, “Substituted 4-Amino-Quinazoline Compounds with Metabotropic Glutamate Receptor Regulating Activity and Uses Thereof” (Gruenenthal GmbH, priority 2006, published 2009).

The target of one test is T1, mGluR5 receptor (Sus scrofa, UniProt I3LUI7).
T1 construct: 450 μg of protein from brain homogenate with 5 nM ^3[H]-MPEP; from tissue; host or cells: pig brain halves without medulla, cerebellum and pons
Put plainly: [3H]-MPEP mGluR5 receptor binding assay (pig brain homogenate). To be noted: 5 nM [3H]-MPEP, read-out: IC50 mGluR5 Receptor (pig) [^3H]-MPEP Bond. The gist of the method:
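Compounds at 10 μM competed with 5 nM [3H]-MPEP for binding to pig brain membranes (450 μg protein) for 60 min at room temperature in pH 8.0 Hepes buffer. Bound radioactivity was collected on glass-fibre filters and read by β-counting, with 10 μM unlabelled MPEP giving non-specific binding.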

A further test in a line: Formalin test on rats. The format is in vivo, rat. The protocol: IIa. Formalin Test on Rats:
The formalin test (Dubuisson, D. and Dennis, S. G., 1977, Pain, 4, 161-174) represents a model for acute as well as chronic pain. By a single formalin injection into the dorsal side of a rear paw a biphase nociceptive reaction is inducted in free-moving test animals that is detected by observation of three clearly distinguishable behavior patterns. The reaction is two-phase: phase I=immediate reaction (duration up to 10 min.; paw shaking, licking), phase 2=late reaction (after a resting phase; likewise paw shaking, licking; duration up to 60 min.). The first phase reflects a direct stimulation of the peripheral nocisensors with high spinal nociceptive input or glutamate release (acute pain phase); the second phase reflects a spinal and peripheral hypersensitisation (chronic pain phase). The chronic pain component (phase 2) was evaluated in the studies presented here.
Formalin is applied subcutaneously in a volume of 50 μl and a concentration of 5% into the dorsal side of the right rear paw of each animal. […] The specific changes in behavior such as lifting and shaking of the paw, shifting weight of the animal as well as biting and licking reactions are observed and recorded in the observation period of 21 to 27 min. after the formalin injection. […]

In the next test the target is T2, mGluR5 receptor (human) (Homo sapiens, UniProt P41594).
T2 construct: host or cells: CHO
The experiment in a line: Functional Ca2+ influx assay in CHO-hmGluR5 cells (DHPG 10 μM, FLIPR). Type of test: cell-based. The protocol:
V. Functional Ca^2+ Influx Assay
20,000 CHO-hmGluR5 cells/well (Euroscreen, Gosselies, Belgium) are pipetted into 96-well plates (BD Biosciences, Heidelberg, Germany, Ref. 356640, clear bottom, 96-well, poly-D-lysine) and incubated overnight in HBSS buffer (Gibco 14025-050) with the following additions: 10% FCS (GIBCO, 10270-106) and doxycycline (BD Biosciences Clontech 631311 600 ng/ml).
For the functional study the cells were charged with 2 μM of Fluo-4 and 0.01% by vol. pluronic F127 (Molecular Probes Europe BV, Leiden, The Netherlands) in HBSS buffer (Hank's buffered saline solution, Gibco Invitrogen GmbH, Karlsruhe, Germany) with probenicide (Sigma P8761, […]) for 30 min. at 37° C.
The cells are then washed 3 times with washing buffer (HBSS buffer, Gibco No. 14025-050), with probenicide (Sigma P8761, 0.69 mg/ml) and then taken up with the same buffer ad 100 μl. After 15 min. the plates for determining the Ca^2+ measurements in the presence of DHPG ((S)-3,5-dihydroxyphenylglycine, Tocris Biotrend Chemikalien GmbH, Cologne, Germany, final DHPG concentration: 10 μM) and also in the presence or absence of test substances are transferred into a fluorometric imaging plate reader (FLIPR, Molecular Devices, Sunnyvale, Calif.).
The Ca^2+-dependent fluorescence is measured before and after the addition of test substances. The quantification occurs through the measurement of the highest fluorescence intensity over time. After the fluorescence base line has been recorded for 10 sec. 50 μl of test substance solution (different test substance concentrations in HBSS buffer with 1% DMSO and 0.02% Tween 20, Sigma) are added and the fluorescence signal is measured for 6 min. 50 μl of DHPG solution ((S)-3,5-dihydroxyphenylglycine, Tocris Biotrend Chemikalien GmbH, Cologne, Germany, final DHPG concentration: 10 μM) are then added and the influx of Ca^2+ is measured simultaneously for 60 sec. The final DMSO concentration amounts to 0.25% and the final Tween 20 content amounts to 0.005%. The data are analysed with Microsoft Excel and GraphPad Prism. The dose effect curves are calculated with non-linear regression and IC50 values determined. Each data point is determined 3 times and IC50 values are averaged from a minimum of 2 independent measurements. Ki values are calculated according to the following formula:
Ki=IC50/(1+(AGconc./EC50)).
AGconc.=10 μM; EC50 corresponds to the DHPG concentration necessary for the half-maximum influx of Ca^2+.

The structures appear in SMILES notation.

T1 sequence (I3LUI7 19-1212): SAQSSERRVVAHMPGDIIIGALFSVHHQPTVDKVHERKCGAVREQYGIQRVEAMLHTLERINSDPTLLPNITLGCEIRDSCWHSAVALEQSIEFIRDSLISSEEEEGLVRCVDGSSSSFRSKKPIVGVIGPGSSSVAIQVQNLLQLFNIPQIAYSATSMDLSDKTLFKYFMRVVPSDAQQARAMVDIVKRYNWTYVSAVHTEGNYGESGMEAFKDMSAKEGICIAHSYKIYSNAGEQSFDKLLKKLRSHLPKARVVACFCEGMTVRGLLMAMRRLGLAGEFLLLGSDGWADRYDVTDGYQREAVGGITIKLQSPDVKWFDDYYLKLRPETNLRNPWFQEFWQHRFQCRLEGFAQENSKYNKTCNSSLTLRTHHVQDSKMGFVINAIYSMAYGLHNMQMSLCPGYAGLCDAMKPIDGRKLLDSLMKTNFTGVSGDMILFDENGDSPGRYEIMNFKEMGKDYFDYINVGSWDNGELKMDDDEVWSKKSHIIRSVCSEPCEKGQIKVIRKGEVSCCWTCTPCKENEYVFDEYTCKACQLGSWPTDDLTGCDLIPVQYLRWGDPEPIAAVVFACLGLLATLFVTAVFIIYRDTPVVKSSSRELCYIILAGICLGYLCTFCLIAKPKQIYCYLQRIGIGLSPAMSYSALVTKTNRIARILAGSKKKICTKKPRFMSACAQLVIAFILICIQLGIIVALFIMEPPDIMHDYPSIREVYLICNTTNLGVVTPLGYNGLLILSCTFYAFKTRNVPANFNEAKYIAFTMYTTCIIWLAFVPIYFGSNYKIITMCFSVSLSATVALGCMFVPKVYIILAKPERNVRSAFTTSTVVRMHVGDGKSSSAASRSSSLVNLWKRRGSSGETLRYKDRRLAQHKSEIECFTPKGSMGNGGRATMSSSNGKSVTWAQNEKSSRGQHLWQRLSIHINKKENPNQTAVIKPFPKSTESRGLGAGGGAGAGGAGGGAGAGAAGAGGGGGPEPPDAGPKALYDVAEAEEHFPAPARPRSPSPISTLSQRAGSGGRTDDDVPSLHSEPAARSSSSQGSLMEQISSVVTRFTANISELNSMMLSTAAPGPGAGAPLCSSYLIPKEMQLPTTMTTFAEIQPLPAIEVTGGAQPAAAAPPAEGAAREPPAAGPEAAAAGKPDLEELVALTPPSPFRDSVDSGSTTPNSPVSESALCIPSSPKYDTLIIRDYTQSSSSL
T2 sequence (P41594 21-1212): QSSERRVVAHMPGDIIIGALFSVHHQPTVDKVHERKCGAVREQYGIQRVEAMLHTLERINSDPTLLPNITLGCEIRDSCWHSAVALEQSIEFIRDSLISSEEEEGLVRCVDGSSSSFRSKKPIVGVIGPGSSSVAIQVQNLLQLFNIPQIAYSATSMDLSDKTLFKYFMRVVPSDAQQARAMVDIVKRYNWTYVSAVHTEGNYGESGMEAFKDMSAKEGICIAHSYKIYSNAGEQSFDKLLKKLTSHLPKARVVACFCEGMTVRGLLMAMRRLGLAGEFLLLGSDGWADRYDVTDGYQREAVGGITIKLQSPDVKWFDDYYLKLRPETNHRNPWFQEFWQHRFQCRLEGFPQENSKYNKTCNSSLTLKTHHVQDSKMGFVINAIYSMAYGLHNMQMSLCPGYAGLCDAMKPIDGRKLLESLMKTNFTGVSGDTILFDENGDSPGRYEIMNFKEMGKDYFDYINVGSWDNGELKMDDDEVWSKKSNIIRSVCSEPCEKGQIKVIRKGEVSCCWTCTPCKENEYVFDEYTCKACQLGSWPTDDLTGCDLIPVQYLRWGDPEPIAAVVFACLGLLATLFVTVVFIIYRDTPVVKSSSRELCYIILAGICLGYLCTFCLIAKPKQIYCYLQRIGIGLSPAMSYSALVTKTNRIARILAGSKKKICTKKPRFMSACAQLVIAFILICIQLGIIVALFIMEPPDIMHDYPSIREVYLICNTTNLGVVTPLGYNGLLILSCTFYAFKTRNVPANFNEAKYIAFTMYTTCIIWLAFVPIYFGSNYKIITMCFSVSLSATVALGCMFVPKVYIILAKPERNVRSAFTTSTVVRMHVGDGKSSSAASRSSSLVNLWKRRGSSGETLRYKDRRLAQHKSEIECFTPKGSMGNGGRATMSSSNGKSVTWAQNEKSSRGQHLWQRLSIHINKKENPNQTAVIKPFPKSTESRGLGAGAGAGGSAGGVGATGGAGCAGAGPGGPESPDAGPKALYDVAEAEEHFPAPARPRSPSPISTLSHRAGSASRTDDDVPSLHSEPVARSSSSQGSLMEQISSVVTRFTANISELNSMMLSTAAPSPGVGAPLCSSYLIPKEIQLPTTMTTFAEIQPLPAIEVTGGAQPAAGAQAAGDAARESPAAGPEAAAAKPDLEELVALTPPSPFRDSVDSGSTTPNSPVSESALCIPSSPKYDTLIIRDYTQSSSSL

The term IC50 denotes the point on the concentration scale where inhibition reaches its midpoint. Usually Ki stands for the dissociation constant of the complex between target and ligand, obtained from inhibition or displacement. Turning to `CC(C)(C)Nc1ncnc2ccc(-c3ccc(F)c(CN(C(=O)CC#N)C4CC4)c3)cc12` [Example 201, N-[5-(4-tert-butylamino-quinazolin-6-yl)-2-fluoro-benzyl]-2-cyano-N-cyclopropyl-acetamide], on mGluR5 receptor, the IC50 came out at 0.03 µM. Besides, in “Formalin test on rats” (2.15 mg/kg i.v.), the “Formalin Test” value is on record as 46% effect at. The same molecule had a Ki on mGluR5 receptor (human) of 0.0027 µM.

Regarding `CC(=O)N(Cc1cc(-c2ccc3ncnc(NC4CC4)c3c2)ccc1F)C1CC1` [Example 260, N-cyclopropyl-N-[5-(4-cyclopropylamino-quinazolin-6-yl)-2-fluoro-benzyl]-acetamide], the IC50 on mGluR5 receptor stood at 0.03 µM. Moreover, in “Formalin test on rats” (10 mg/kg i.v.), the “Formalin Test” value amounted to 80% effect at. Further, on mGluR5 receptor (human), the Ki stood at 0.0008 µM.

For the molecule `CCOC(=O)N(Cc1cccc(-c2ccc3ncnc(NC4CC4)c3c2)c1)C1CC1` [Example 875, ethyl cyclopropyl(3-(4-(cyclopropylamino)quinazolin-6-yl)benzyl)carbamate], the IC50 at mGluR5 receptor amounted to 0.04 µM. Also, on mGluR5 receptor (human), the Ki came to 0.0511 µM.

For the molecule `O=C1CCC(=O)N1Cc1cccc(-c2cc3c(NC4CC4)ncnc3cc2F)c1` [Example 882, 1-(3-(4-(cyclopropylamino)-7-fluoroquinazolin-6-yl)benzyl)pyrrolidine-2,5-dione], the IC50 on mGluR5 receptor was 0.07 µM. At mGluR5 receptor (human), this molecule displayed a Ki of 0.0027 µM.
